This note sets out measurements from US20250154134A1, “COMPOUND AS FAK INHIBITOR AND USE THEREOF” (WIGEN BIOMEDICINE TECHNOLOGY (SHANGHAI) CO., LTD., priority 2022, published 2025).

Data set [1] deals with PC3 cells. The data set is described as follows: Inhibition of PC3 cell low adsorption (adherent cell count, 4 h). It counts as cell-based. The note with it: Homo sapiens, PC-3; 4 h treatment; read-out: IC50 against PC3 cell low adsorption. As to the method: PC3 cells were seeded at 8000 cells/well. 4 h after the cells were treated with a compound, the number of adherent cells was counted. The inhibition percentage and IC50 of the compound were calculated compared to the DMSO group.

For data set [2], the system named is PC3 cells. Nature of the data set: PC3 cell proliferation, 3D activity assay (3D culture, 14 days). Format: cell-based, human. The note with it: Homo sapiens, PC-3, 336 h, read-out: 3D inhibitory activity against PC3 cells IC50.
Data set [3] relates to PC3 cells. Nature of the data set: PC3 cell proliferation, 2D activity assay (Cell Titer-Lumi, 72 h). The note with it: Homo sapiens, PC-3, read-out: 2D inhibitory activity against PC3 cells IC50. It counts as cell-based, human.
Data set [4] concerns phosphorylation at the FAK 397 site. The data set is described as follows: Inhibition of Y397 phosphorylation in PC3 cells (ELISA). Format: cell-based. The note with it: Homo sapiens, PC-3, 3 h treatment, read-out: IC50 against Y397 phosphorylation. As for the experimental part: PC3 cells were seeded at 8000 cells/well. […] The inhibition percentage and IC50 of the compound were calculated compared to the DMSO group.
A general note: ELISA stands for enzyme-linked immunosorbent assay.

The target of data set [5] is FAK recombinant protein (Homo sapiens (Human), UniProt Q05397). The data set is described as follows: Inhibitory activity against FAK enzyme (HTRF, TK substrate). Format: biochemical. As to the method: A compound serially diluted with DMSO was mixed with a FAK recombinant protein. After the mixture was left to stand at room temperature for 10 min, a biotin-labeled TK substrate (TK) and ATP were added. […] The inhibition percentage and IC50 of the compound were calculated compared to the DMSO control group.

Data set [6] relates to Human pancreatic cancer Mia PaCa-2 cells. Nature of the data set: In vivo efficacy, Mia PaCa-2 xenograft in nude mice. Also noted: species or system mouse. To be noted: MiaPaCa-2 model, 25 mg/kg PO QD 21 days. As for the experimental part:
The groups were as follows: 1) a solvent control group, 8 mice; and 2) a control compound group and a test compound group, 8 mice each. The mice in the solvent control group were intragastrically administered 0.5% CMC-Na twice a day; the mice in the compound groups were intragastrically administered 0.50% MC-Tween-80 suspension once a day. On Tuesday and Thursday each week, tumor volumes and body weight of the mice were measured, and the nude mice were sacrificed on day 21 after the administration. […] The toxicity of the compounds was evaluated according to the body weight of the mice.

Data set [7] is described as follows: In vivo pharmacokinetic experiment in CD-1 mice. To be noted: mouse, plasma, CD-1 female mice; for Vd: read-out: Vdss. As for the experimental part:
[…] The mice were fasted for at least 12 h before the administration and given food 4 h after the administration, and they were given ad libitum access to water during the experiment.
On the day of the experiment, animals in the intravenous group were given the corresponding compound by single injection via the tail vein at an administration volume of 10 mL/kg; and animals in the oral group were given the corresponding compound by single intragastric injection at an administration volume of 10 mL/kg. The animals were weighed before administration, and the administration volume was calculated according to the body weight. The sample collection time points were 0.083 h, 0.167 h, 0.5 h, 1 h, 2 h, 4 h, 8 h, and 24 h. About 200 μL of whole blood was collected through the orbital venous plexus at each time point and used to prepare plasma for concentration determination by high-performance liquid chromatography-tandem mass spectrometry (LC-MS/MS). The plasma concentrations were processed using a non-compartmental model of Winnolin pharmacokinetic software, and the pharmacokinetic parameters were calculated using a linear-log trapezoidal method.

Setting [8] is: intravenous, injection (1 mg/kg).

Read-outs that look alike come from different tables or passages of the source. Some results are limits rather than exact numbers.

Sequence of FAK recombinant protein (Q05397 whole entry): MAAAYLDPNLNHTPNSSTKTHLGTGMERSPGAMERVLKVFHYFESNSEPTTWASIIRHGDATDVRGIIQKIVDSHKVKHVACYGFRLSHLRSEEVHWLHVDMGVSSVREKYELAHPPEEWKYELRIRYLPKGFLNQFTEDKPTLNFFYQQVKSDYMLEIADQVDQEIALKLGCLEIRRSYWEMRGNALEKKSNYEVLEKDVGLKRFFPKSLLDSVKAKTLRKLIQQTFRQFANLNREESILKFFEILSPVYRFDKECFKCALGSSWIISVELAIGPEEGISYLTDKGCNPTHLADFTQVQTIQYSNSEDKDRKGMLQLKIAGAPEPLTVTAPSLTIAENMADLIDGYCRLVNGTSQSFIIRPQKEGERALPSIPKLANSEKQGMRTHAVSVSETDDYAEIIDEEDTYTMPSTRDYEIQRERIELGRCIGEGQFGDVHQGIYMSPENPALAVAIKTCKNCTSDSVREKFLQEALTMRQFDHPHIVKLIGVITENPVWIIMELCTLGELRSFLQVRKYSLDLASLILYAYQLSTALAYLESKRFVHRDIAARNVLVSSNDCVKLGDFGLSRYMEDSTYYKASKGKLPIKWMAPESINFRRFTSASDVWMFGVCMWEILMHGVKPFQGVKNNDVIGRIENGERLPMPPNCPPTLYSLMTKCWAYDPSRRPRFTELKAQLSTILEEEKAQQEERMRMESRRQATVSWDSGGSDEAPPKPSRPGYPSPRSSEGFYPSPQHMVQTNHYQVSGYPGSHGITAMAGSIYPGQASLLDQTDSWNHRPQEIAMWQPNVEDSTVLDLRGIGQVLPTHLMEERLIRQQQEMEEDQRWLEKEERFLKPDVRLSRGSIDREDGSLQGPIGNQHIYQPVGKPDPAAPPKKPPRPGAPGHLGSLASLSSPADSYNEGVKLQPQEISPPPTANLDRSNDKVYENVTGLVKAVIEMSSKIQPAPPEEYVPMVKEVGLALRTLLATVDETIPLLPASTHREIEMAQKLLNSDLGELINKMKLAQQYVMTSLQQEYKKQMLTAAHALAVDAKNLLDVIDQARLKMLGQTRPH

As a reminder, the IC50 is the concentration at which inhibition is half-maximal. As for `COc1cc(N2CCC(N3CCN(C)CC3)CC2)ccc1Nc1ncc(C(F)(F)F)c(Oc2cccc3c2C(=O)N(C)C32CC2)n1` [Compound 78], the IC50 in data set [1] is 5.83 nM; in data set [2], 0.78 nM; in data set [3], more than 10000 nM; in data set [4], less than 0.01 nM; in data set [5] it was less than 20 nM.

As to `COc1cc(N2CC3(CCN(C)CC3)C2)ccc1Nc1ncc(C#N)c(Oc2cccc3c2C(=O)N(C)C32CC2)n1` [Compound 196, 2-((2-methoxy-4-(7-methyl-2,7-diazaspiro[3.5]nonan-2-yl)phenyl)amino)-4-((2′-methyl-3′-oxospiro[cyclopropane-1,1′-isoindolin]-4′-yl)oxy)pyrimidine-5-carbonitrile], the IC50 was 1.6 nM in data set [1]; 0.33 nM in data set [2]; more than 2000 nM in data set [3]; 0.05 nM in data set [4]; less than 20 nM in data set [5].

For the molecule `COc1cc(N2CC3(CCN(C)CC3)C2)c(F)cc1Nc1ncc(Br)c(Oc2cccc3c2C(=O)N(C)C32CC2)n1` [Compound 178], the IC50 in data set [1] is 6.22 nM; in data set [2], 0.38 nM; in data set [3] it was more than 2000 nM; in data set [5], less than 20 nM. In data set [6], the “TGI(%)” value is reported as 82.41%.

The AUC(0-t) is exposure summed from dosing to a finite time, without extrapolation to infinity. A low value points to low exposure. The clearance is the volume of plasma or blood freed of the substance per unit of time. Low readings indicate a low capacity for elimination, high ones a high capacity for elimination. By half-life is commonly meant how long it takes for the measured level to halve. Lower therefore signals fast loss. As a reminder, the Cmax is the maximum level reached in the sampled fluid or tissue. The term Tmax denotes the time at which the peak concentration occurs. Regarding `COc1cc(N2CC3(CCN(C)CC3)C2)ccc1Nc1ncc(Br)c(Oc2cccc3c2C(=O)N(C)C32CC2)n1` [Compound 177, 4′-((5-bromo-2-((2-methoxy-4-(7-methyl-2,7-diazaspiro[3.5]nonan-2-yl)phenyl)amino)pyrimidin-4-yl)oxy)-2′-methylspiro[cyclopropane-1,1′-isoindolin]-3′-one], in data set [1], the IC50 was determined as 1.86 nM. In data set [7] (iv, injection (1 mg/kg)), the AUC(0-t) was 1.11 µg·h/mL, the clearance turned out to be 0.899 L/h/kg, the half-life was 5.89 h and the Vd was 7.51 L/kg. In addition, in data set [7] (oral administration (10 mg/kg)), the AUC(0-t) was determined as 7.45 µg·h/mL, the concentration peaked (Cmax) at 0.815 µg/mL, the Tmax stood at 2 h and the bioavailability is 67%. Further, the half-life in data set [7] (oral administration (10 mg/kg)) is 3.37 h. For the same molecule, in data set [2], the IC50 came out at 0.38 nM. Also, in data set [3], the IC50 was more than 2000 nM. In data set [4], the IC50 stood at 0.02 nM. In data set [5], the IC50 was less than 20 nM.

As to `CNC(=O)c1ccc(Nc2ncc(C(F)(F)F)c(Oc3cccc4c3C(=O)N(C)C43CC3)n2)cc1` [Compound 1, N-methyl-4-((4-((2′-methyl-3′-oxospiro[cyclopropane-1,1′-isoindolin]-4′-yl)oxy)-5-(trifluoromethyl)pyrimidin-2-yl)amino)benzamide], the IC50 in data set [1] was 21.1 nM; in data set [2], 10.8 nM; in data set [3], more than 2000 nM; in data set [5] it was less than 20 nM.

`COc1cc(C(=O)NC2COC3(CCN(C)C3)C2)ccc1Nc1ncc(C(F)(F)F)c(Oc2cccc3c2C(=O)N(C)C32CC2)n1` (stereo not drawn) [Compound 27]: the IC50 is 11.7 nM in data set [1], less than 5 nM in data set [2], more than 2000 nM in data set [3] and less than 20 nM in data set [5].

As to `CN1Cc2cc(Nc3ncc(C(F)(F)F)c(Oc4cccc5c4C(=O)N(C)C54CC4)n3)cc3c2C(CCO3)C1` (stereo not drawn) [Compound 89], the IC50 is 36.2 nM in data set [1], 5 to 50 nM in data set [2], more than 10000 nM in data set [3] and less than 20 nM in data set [5].

On to `CN1Cc2cc(Nc3ncc(C(F)(F)F)c(Oc4cccc5c4C(=O)N(C)C54CC4)n3)cc3c2C(CCC3)C1` (stereo not drawn) [Compound 88], for which the half-maximal inhibitory concentration (IC50) in data set [1] was 42.4 nM; in data set [2], 1.78 nM; in data set [3] it was more than 10000 nM; in data set [5] it was less than 20 nM.

`COc1cc(C(=O)NC2CCN(C)CC2)c(F)cc1Nc1ncc(Cl)c(Oc2cccc3c2C(=O)N(C)C32CC2)n1` [Compound 117]: the IC50 in data set [1] was determined as 4.6 nM. Besides, in data set [6], the “TGI(%)” value is reported as 62.86%. Moreover, in data set [7] (iv, injection (1 mg/kg)), the AUC(0-t) was determined as 0.64 µg·h/mL, the clearance was 1.56 L/h/kg, the half-life was 1.81 h and the Vd was found to be 3.47 L/kg. In data set [7] (oral administration (10 mg/kg)), the AUC(0-t) came out at 7.85 µg·h/mL, the highest level (Cmax) was 0.822 µg/mL, the Tmax worked out at 2 h and the bioavailability was 123%. Further, the half-life in data set [7] (oral administration (10 mg/kg)) is 2.22 h. Further, the IC50 in data set [2] lay within 5 to 50 nM. Besides, in data set [3], the IC50 is more than 2000 nM. In addition, the IC50 in data set [4] came out at 0.7 nM. Further, in data set [5], the IC50 was less than 20 nM.

On to `COc1cc(N2CCC(N3CCN(C)CC3)CC2)ccc1Nc1ncc(Cl)c(Oc2cccc3c2C(=O)N(C)C32CC2)n1` [Compound 139], for which the IC50 is 5.2 nM in data set [1]; 1.7 nM in data set [2]; more than 2000 nM in data set [3]; 0.56 nM in data set [4]; less than 20 nM in data set [5].

With `COc1cc(C(=O)NC2(C)CCN(C)CC2)ccc1Nc1ncc(C(F)(F)F)c(Oc2cccc3c2C(=O)N(C)C32CC2)n1` [Compound 6], the IC50 in data set [1] is 2.67 nM; in data set [2], less than 5 nM; in data set [3], more than 2000 nM; in data set [5] it was less than 20 nM.

Regarding `COc1cc(N2CC3(CCN(C)CC3)C2)c(F)cc1Nc1ncc(C#N)c(Oc2cccc3c2C(=O)N(C)C32CC2)n1` [Compound 197], the IC50 in data set [1] was 1.67 nM; in data set [2], 2.42 nM; in data set [3] it was more than 2000 nM; in data set [5], less than 20 nM.

On to `COc1cc(N2CCOCC2)ccc1Nc1ncc(C(F)(F)F)c(Oc2cccc3c2C(=O)N(C)C32CC2)n1` [Compound 77], for which the IC50 is 27.2 nM in data set [1], 4.88 nM in data set [2], more than 10000 nM in data set [3] and less than 20 nM in data set [5].

`Cc1cc(Nc2ncc(C(F)(F)F)c(Oc3cccc4c3C(=O)N(C)C43CC3)n2)n(C(C)C)n1` [Compound 91]: the IC50 was 36.4 nM in data set [1], 5 to 50 nM in data set [2], more than 2000 nM in data set [3] and less than 20 nM in data set [5].

For `COc1cc(C(=O)NC2CCN(C)CC2)ccc1Nc1ncc(C(F)(F)F)c(Oc2cccc3c2C(=O)N(C)C32CC2)n1` [Compound 3, 3-methoxy-4-((4-((2′-methyl-3′-oxospiro[cyclopropane-1,1′-isoindolin]-4′-yl)oxy)-5-(trifluoromethyl)pyrimidin-2-yl)amino)-N-(1-methylpiperidin-4-yl)benzamide], in data set [1], the IC50 came out at 3.14 nM. In data set [7] (setting [8]), the AUC(0-t) was 0.248 µg·h/mL, the clearance worked out at 4.03 L/h/kg, the half-life was 2.14 h and the Vd was determined as 6.14 L/kg. Moreover, in data set [7] (oral administration (10 mg/kg)), the AUC(0-t) worked out at 0.19 µg·h/mL, the Cmax came to 0.0573 µg/mL, the Tmax was 4 h and the bioavailability worked out at 7.94%. The IC50 in data set [2] was 0.45 nM. For the same molecule, the IC50 in data set [3] is more than 2000 nM.

Turning to `COc1cc(C(=O)NC2CCN(C)CC2)ccc1Nc1ncc(Cl)c(Oc2cccc3c2C(=O)N(C)C32CC2)n1` [Compound 114, 4-((5-chloro-4-((2′-methyl-3′-oxospiro[cyclopropane-1,1′-isoindolin]-4′-yl)oxy)pyrimidin-2-yl)amino)-3-methoxy-N-(1-methylpiperidin-4-yl)benzamide], the IC50 was 2.85 nM in data set [1]; 1.09 nM in data set [2]; more than 2000 nM in data set [3]; 0.39 nM in data set [4]; less than 20 nM in data set [5].

For the molecule `COc1cc(N2CCN(C)CC2)ccc1Nc1ncc(Cl)c(Oc2cccc3c2C(=O)N(C)C32CC2)n1` [Compound 141], the IC50 in data set [1] is 13.9 nM; in data set [2] it was 5 to 50 nM; in data set [3] it was more than 2000 nM; in data set [5], less than 20 nM.

In the case of `CN1C(=O)c2c(Oc3nc(Nc4cc5n(n4)CCC5)ncc3C(F)(F)F)cccc2C12CC2` [Compound 92, 4′-((2-((5,6-dihydro-4H-pyrrolo[1,2-b]pyrazol-2-yl)amino)-5-(trifluoromethyl)pyrimidin-4-yl)oxy)-2′-methylspiro[cyclopropane-1,1′-isoindolin]-3′-one], the IC50 in data set [1] is 62 nM; in data set [2], 5 to 50 nM; in data set [3] it was more than 2000 nM; in data set [5] it was less than 20 nM.
